Assay results published in US10251902B2, “Pharmaceutical composition for treating or preventing neuropsychiatric disease, containing flavone-6-C-glucose derivatives as active ingredients” (priority 2013, dated 2019).

Columns and labels:
[1] = test system: model of memory impairment induced by scopolamine; experiment: Passive avoidance test in scopolamine-induced memory impairment model; format: in vivo, ICR mice; conditions: for Main Experiment / Passive Avoidance Learning: Table 2, scopolamine 1 mg/Kg i.p.; for Main Experiment: latency 24 h after learning, up to 300 seconds; for Passive Avoidance Learning: latency in learning trial; for latency time extended compared to that of the control 2: main experiment, control 2 = scopolamine
Description: An experiment was conducted to confirm effects of swertisin or isoorientin, and extracts of Swertia pseudochinensis or Swertia japonica containing the same prepared in Examples 1 to 3 in treating dementia by using a model of memory impairment induced by scopolamine. Detailed method follows.
(§1) Six-week old ICR mice in about 26 g to 28 g (Orientbio Inc, Republic of Korea) were received water and feed without constraint and adapted for 5 days under an environment having about 23±1° C. of temperature, about 60±10% of humidity and 12-hour light/dark cycle (animal laboratory at College of Pharmacy, Kyung-Hee University), and then used for the experiment.
An apparatus for measuring passive avoidance reaction was prepared. The apparatus has 2 separated chambers (the first and second chambers) and there is a guillotine-shaped passage that connects the first chamber and the second chamber. The first chamber was maintained brightly by using a light, and the second chamber was maintained darkly. A grid was installed on the floor of the second chamber. The grid generates 0.5 mA of electric shock for 3 seconds when the laboratory animal moved into the dark chamber.
About 30 minutes later, 1 mg/Kg of scopolamine, which was dissolved in distilled water, was intraperitoneally administered to the drug administration groups 1 to 4 and controls 1 and 2 (Ebert, U. et al., Eur. J. Clin. Invest., 28, pp 944-949, 1998), and 0.9% of saline solution was intraperitoneally administered to the control 3. After 30 minutes, passive avoidance learning was conducted on the drug administration groups 1-4 and controls 1-3. In detail, the mice were located in the first chamber (i.e. bright space) and the passage was open after about 20 seconds of observation time, and then latency time of the mice moving to the second chamber (i.e. dark space) was measured.
Twenty-four hours after the passive avoidance learning, a main experiment was conducted on the drug administration groups 1-4 and controls 1-3. Latency time of the mice of each group moving their 4 legs into the dark space after 10 seconds of observation time from opening of the guillotine-shaped passage was measured up to 300 seconds. It means that the passive avoidance learning and memory are better if the latency time is longer.
(§2) The passive avoidance test was conducted on the drug administration groups 1-4 and controls 1-3 in the same manner as the method explained above except that swertisin, which is one of the flavone-6-C-β-D-glucose derivatives prepared in Example 3, was dissolved in 10% Tween 80 and administered to the drug administration groups 1-4 in amounts of 1.25 mg/kg, 2.5 mg/kg, 5 mg/kg and 10 mg/kg respectively.
as §2, with “Experimental Example 1-1” for “the method explained above”, “isoorientin,” for “swertisin,”
(§3) The passive avoidance test was conducted on the drug administration groups 1-3 and controls 1-3 in the same manner as Experimental Example 1-1 except that a 70% ethanol extract of Swertia japonica prepared in Example 1, was dissolved in 10% Tween and administered to the drug administration groups 1-3 in amounts of 100 mg/kg, 200 mg/kg and 400 mg/kg respectively.
as §3, with “pseudochinensis” for “japonica”, “2,” for “1,”, “Tween 80” for “Tween”

[2] = test system: brain cells in the hippocampal region, mouse model of stroke; experiment: Neurological scoring of hippocampal brain cell damage (Nissl staining) in mouse model of stroke; format: in vivo, ICR mice; conditions: for Neurological Score: Table 13, score 0-3 points of hippocampal damage
Description: as §1, with “Seven-week” for “Six-week”, “30” for “26”, “35” for “28”
The laboratory animal in 1) was located in an operating room, adapted for 60 minutes, and anesthetized in a space providing anaesthetic gasses (nitrous oxide: 70%; oxygen: 30%; isoflurane: 2.0%). Pain reflex was examined to confirm the anesthesia. The laboratory animal was lain down straight on an operating table, and fixed its upper limb and head. Skin from the spot, where the upper limb and the center line meet, was incised as 1.5 cm to expose the both common carotid arteries by using tweezers while not damaging the tissues. Tissues and nerves attached to the exposed carotid arteries were separated and fixed with an aneurysm clip. The clip was removed after 15 minutes and reperfused, and the incised area was sutured with sutures. After the suture, the laboratory animal was immediately moved to a recovery room (32-33° C., O2 enrichment condition) and kept until it recovers from anesthesia. Observation on its weight and status was conducted once a day for 4 days after the operation.
Meanwhile, upon termination of the Y-maze test, a 4% paraformaldehyde fixation was conducted on the drug administration groups 1-3 and the control 2, and brain was excised. Paraformaldehyde-fixed brain sample was washed and section having 30 μm of thickness was prepared therefrom. The Nissl staining, which can stain a native region of brain cells in normal status, was performed. Brain cell damage in the hippocampal region of the drug administration groups 1-3, wherein the Swertia japonica extract prepared in Example 1 was administered, and the controls 1 and 2 was assessed through a neurological scoring. Pertaining to the evaluation standard, 0 point was scored when there was no damage on the hippocampal region; 1 point for 0-30% of damage; 2 points for 30-60% of damage; and 3 points for 60-100% of damage. The points were scored by 3 people who have no knowledge of the drug administration groups and the controls. Average point was used to calculate the degree of damage.
Upon termination of the Y-maze test, the drug administration groups 1-3 and the control 2 were sacrificed to prepare the brain section, and the Nissl staining was conducted to evaluate brain cell damage in the hippocampal region of the drug administration groups 1-3, wherein swertisin prepared in Example 3 was administered, and the controls 1 and 2 through the neurological scoring.

COc1cc2oc(-c3ccc(O)cc3)cc(=O)c2c(O)c1[C@@H]1O[C@H](CO)[C@@H](O)[C@H](O)[C@H]1O [swertisin]
Main Experiment ([1]; swertisin 1.25 mg/kg): 67.13 ± 26.08 s
Passive Avoidance Learning ([1]; swertisin 1.25 mg/kg): 30.20 ± 14.53 s
Main Experiment ([1]; swertisin 2.5 mg/kg): 82.11 ± 35.20 s
Passive Avoidance Learning ([1]; swertisin 2.5 mg/kg): 19.10 ± 10.37 s
Main Experiment ([1]; swertisin 5 mg/kg): 117.3 ± 44.16 s
Passive Avoidance Learning ([1]; swertisin 5 mg/kg): 20.40 ± 10.11 s
Main Experiment ([1]; swertisin 10 mg/kg): 117.7 ± 52.28 s
Passive Avoidance Learning ([1]; swertisin 10 mg/kg): 29.70 ± 18.76 s
latency time extended compared to that of the control 2 ([1]; swertisin 1.25 mg/Kg): about 2 fold
latency time extended compared to that of the control 2 ([1]; swertisin 2.5 mg/Kg): about 2.5 fold
latency time extended compared to that of the control 2 ([1]; swertisin 5 mg/Kg): about 3 fold
latency time extended compared to that of the control 2 ([1]; swertisin 10 mg/Kg): about 3 fold
Neurological Score ([2]; swertisin 50 mg/kg for 7 days): 1.8130 ± 0.3750
Neurological Score ([2]; swertisin 100 mg/kg for 7 days): 1.2500 ± 0.2500
Neurological Score ([2]; swertisin 200 mg/kg for 7 days): 1.1670 ± 0.5204
neurological score, in words ([2]; swertisin 200 mg/kg (drug administration group 3) versus stroke-induced group): significant result to the stroke-induced group
